Details: Liquid; for viscosity: Capillary tube (Ostwald / Ubbelohde) method; for mass density: Vibrating tube method

CC(C)CCCC(C)CCCC(C)CCCCC(C)CCCC(C)CCCC(C)C (stereo not given) [2,6,10,15,19,23-hexamethyltetracosane]
Details	mass density [kg/m3]	viscosity [mPa·s]
313.15 K, 5700 kPa	798.1	16.52
313.15 K, 13500 kPa	804.3	19.37
313.15 K, 23500 kPa	811.4	23.38
313.15 K, 45700 kPa	822.6	35.26
313.15 K, 68000 kPa	832.5	52.85
338.15 K, 7900 kPa	783.2	7.82
338.15 K, 11000 kPa	785.2	8.05
338.15 K, 22500 kPa	793.3	10.19
338.15 K, 45600 kPa	807.5	14.4
338.15 K, 60500 kPa	814.6	18.07
338.15 K, 76300 kPa	820.5	22.98
363.15 K, 10600 kPa	769.9	4.5
363.15 K, 21500 kPa	777.9	5.38
363.15 K, 42500 kPa	791.1	7.21
363.15 K, 63700 kPa	802.4	9.47
